Test results from ChEMBL document CHEMBL5247579, “Targeting PGAM1 in cancer: An emerging therapeutic opportunity” (Eur J Med Chem, 2022).
pEC50, pIC50: −log10 of the molar value.

Key:
KG-1a = assay: Antiproliferative activity against human KG-1a cells assessed as decrease in cell viability incubated for 72 hrs by trypan blue exclusion assay; assay type: functional, cell-based
A549 [1] = assay: Antiproliferative activity against human A549 cells assessed as reduction in cell viability incubated for 72 hrs by CCK8 assay; assay type: functional, cell-based; settings: A549, 72 h
NCI-H1299 [2] = assay: Antiproliferative activity against human NCI-H1299 cells assessed as decrease in cell viability incubated for 72 hrs by trypan blue exclusion assay; assay type: functional, cell-based; settings: NCI-H1299, 72 h
PC-9 = assay: Antiproliferative activity against human PC-9 cells assessed as reduction in cell viability incubated for 72 hrs by CCK8 assay; assay type: functional, cell-based; settings: PC-9, 72 h
[3] = molecular target: T1, Phosphoglycerate mutase 1 (Homo sapiens, UniProt P18669); assay: Inhibition of His-tagged recombinant PGAM1 (unknown origin) expressed in Escherichia coli BL21 assessed as decrease in absorbance from oxidation of NADH in presence of LDH, pyruvate kinase M1 and NADH by microplate reader assay
T1 sequence (P18669 whole entry): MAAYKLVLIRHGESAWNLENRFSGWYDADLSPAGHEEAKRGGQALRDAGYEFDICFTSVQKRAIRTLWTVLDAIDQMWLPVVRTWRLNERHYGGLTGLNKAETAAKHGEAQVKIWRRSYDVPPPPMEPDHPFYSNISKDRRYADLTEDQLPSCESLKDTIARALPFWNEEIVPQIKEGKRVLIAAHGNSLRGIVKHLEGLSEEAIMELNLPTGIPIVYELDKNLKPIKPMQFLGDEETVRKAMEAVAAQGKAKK

[4] = molecular target: T1, Phosphoglycerate mutase 1; assay: Inhibition of recombinant PGAM1 (unknown origin) assessed as decrease in absorbance in presence of LDH, pyruvate kinase M2 and NADH by spectroscopic analysis
PANC-1 = assay: Antiproliferative activity against human PANC-1 cells assessed as reduction in cell viability incubated for 24 hrs by CCK-8 assay; assay type: functional, cell-based; settings: PANC-1, 24 h
ASPC1 = assay: Antiproliferative activity against human ASPC1 cells assessed as reduction in cell viability incubated for 24 hrs by CCK-8 assay; assay type: functional, cell-based; settings: ASPC1, 24 h
MIA PaCa-2 = assay: Antiproliferative activity against human MIA PaCa-2 cells assessed as reduction in cell viability incubated for 24 hrs by CCK-8 assay; assay type: functional, cell-based; settings: MIA PaCa-2, 24 h
A549 [5] = assay: Antiproliferative activity against human A549 cells assessed as reduction in cell viability incubated for 72 hrs by MTT assay; assay type: functional, cell-based; settings: A549, 72 h
NCI-H1299 [6] = assay: Antiproliferative activity against human NCI-H1299 cells assessed as reduction in cell viability incubated for 72 hrs by MTT assay; assay type: functional, cell-based; settings: NCI-H1299, 72 h
A549 [7] = assay: Antitumor activity against human A549 cells assessed as reduction in cell viability incubated for 72 hrs by CCK-8 assay; assay type: functional, cell-based; settings: A549, 72 h
[8] = molecular target: T1, Phosphoglycerate mutase 1; assay: Allosteric inhibition of PGAM1 (unknown origin) assessed as decrease in absorbance in presence of LDH, pyruvate kinase M2 and NADH by spectroscopic analysis
HCC827 [9] = assay: Antitumor activity against erlotinib-resistant human HCC827 cells assessed as reduction in cell viability incubated for 72 hrs by CCK-8 assay; assay type: functional, cell-based; settings: HCC827, 72 h
HCC827 [10] = assay: Antitumor activity against human HCC827 cells assessed as reduction in cell viability incubated for 72 hrs by CCK-8 assay; assay type: functional, cell-based; settings: HCC827, 72 h
[11] = molecular target: T1, Phosphoglycerate mutase 1; assay: Inhibition of human PGAM1 in human MDA-MB-231 cells assessed as decrease in PGAM1 activity incubated for 2 hrs by UV/Vis spectrophotometry; assay type: cell-based
MDA-MB-231 = assay: Antiproliferative activity against human MDA-MB-231 cells assessed as inhibition of cell proliferation incubated for 12 hrs by BrdU incorporation assay; assay type: functional, cell-based; settings: MDA-MB-231, 12 h
[12] = molecular target: T1, Phosphoglycerate mutase 1; assay: Inhibition of His6-tagged human PGAM1 expressed in Escherichia coli BL21(DE3)pLysS cells assessed as decrease in autofluorescence from oxidation of NADH in presence of LDH and pyruvate kinase M1 by multiple enzymes coupled assay

O=C1c2ccccc2C(=O)c2c1cc(S(=O)(=O)Nc1ccc(C(F)(F)F)cc1)c(O)c2O
pEC50 (KG-1a): 4.77 | pEC50 (A549 [1]): 4.41 | pEC50 (NCI-H1299 [2]): 4.59 | pEC50 (PC-9): 4.75

[N-]=[N+]=NCCCCC(=O)Oc1ccccc1S(=O)(=O)Nc1cc2c(c(O)c1O)C(=O)c1ccccc1C2=O
pIC50 [3]: 5.89

O=C1c2ccccc2C(=O)c2c1cc(NS(=O)(=O)c1ccc(N3CCCC3)cc1)c(O)c2O
pIC50 [4]: 6.98 | pEC50 (PANC-1): 6.30 | pEC50 (ASPC1): 6.29 | pEC50 (MIA PaCa-2): 6.57

CN(C)c1ccc(S(=O)(=O)Nc2cc3c(c(O)c2O)C(=O)c2ccccc2C3=O)cc1
pIC50 [4]: 6.11

O=C1c2ccccc2C(=O)c2c1cc(NS(=O)(=O)O)c(O)c2O
pIC50 [4]: 5.27

CC(=O)Oc1ccccc1S(=O)(=O)Nc1cc2c(c(O)c1O)C(=O)c1ccccc1C2=O
pIC50 [3]: 6.00

O=C1c2ccccc2C(=O)c2c1cc(NS(=O)(=O)c1ccc(Cl)cc1)c(O)c2O
pEC50 (A549 [5]): 4.90 | pEC50 (NCI-H1299 [6]): 5.16

O=C1c2ccccc2C(=O)c2c1cc(NS(=O)(=O)c1ccc(N3CCC3)cc1)c(O)c2O
pEC50 (A549 [7]): 5.25 | pIC50 [8]: 6.07 | pEC50 (HCC827 [9]): 5.99 | pEC50 (HCC827 [10]): 5.77

C#CCCCC(=O)OC(C)(C)C1CCCOC(OC(=O)N[C@@H](Cc2c[nH]c3ccccc23)C(=O)OCc2ccccc2)C1 (some centres not stated)
pEC50 [11]: 4.48 | pIC50 (MDA-MB-231): 4.72

O=C1c2ccccc2C(=O)c2c1ccc(O)c2O [ATHRAQUINONES A]
pIC50 [12]: < 4.70 | pEC50 (KG-1a): 4.22
